The target of assay [1] is T1, hERG potassium channels (Homo sapiens, UniProt Q12809). As to the kind of experiment: hERG channel inhibition, automated patch-clamp in HEK293-hERG stable transfected cell line. The conditions noted are these: read-out: IC50 values of blocking effects on hERG potassium currents, whole-cell patch-clamp, tail currents.
For assay [2], the target named is T2, BTK recombinant human protein (Homo sapiens, UniProt Q06187).
T2 construct: purchased Thermo PV3363
Description: Inhibitory activity against BTK (HTRF KinEASE-TK kit). The class given is biochemical. The conditions noted are these: 2 nM BTK, 10 µM ATP, 0.5 hours preincubation at 25°C; read-out: IC50 values of inhibitory activity against BTK. On the procedure:
Test example 1: Inhibitory activity of compounds of the present disclosure against BTK • I. Experimental materials and instruments • 1. BTK recombinant human protein (Thermo, PV3363) • 2. HTRF KinEASE-TK kit (Cisbio, 62TK0PEC) • 3. 1 M MgCl2 (Thermo, AM9530G) • 4. 1 M MnCl2 (Sigma, M1787-100ML) • 5. Adenosine 5'-triphosphate (ATP) (New England Biolabs, P0756L) • 6. DTT 2M (Sangon Biotech, B645939) • 7. Ultrapure water (Invitrogen, 10977-015) • 8. OptiPlate-384, white opaque 384-well microplate (PerkinElmer, 6007290) • 9. 96-well round-bottom plate (Corning, 3788) • 10. Biochemical incubator (Shanghai Boxun Medical & Biological Instruments Co., Ltd., BSP-100) • 11. 15-mL centrifuge tube (Corning) • 12. Benchtop high-speed centrifuge (Changsha Yingtai Instrument Co., Ltd., TD4N) • 13. Multifunctional microplate reader (PerkinElmer, EnVision) • 14. Bravo liquid handling platform (Agilent Technologies, SGC120TH34702) • II. Experimental procedure
The HTRF KinEASE-TK kit is designed to detect changes in BTK enzyme activity based on two technologies, i.e., fluorescence resonance energy transfer and time-resolved fluorescence. The kit is operated in two stages: 1) enzyme reaction stage: the enzyme reaction is initiated by adding ATP, where the enzyme phosphorylates the substrate, and the compounds are then added to competitively bind to BTK against ATP, thereby inhibiting substrate phosphorylation; and 2) detection stage: after the enzyme reaction is complete, a detection reagent is added to terminate the reaction. Different groups on the phosphorylated substrate bind to the energy donor and energy acceptor, respectively, bringing the two into close proximity. During the instrumental readout, the energy donor is excited by an external light source, which enables resonance energy transfer to the proximal energy acceptor. The acceptor, in turn, becomes excited and emits light at a specific wavelength. Thus, changes in enzyme activity can be detected by measuring the signal values, and the inhibition rate of the compounds against the target enzyme can be calculated, thereby evaluating the inhibitory effect of the compounds on BTK enzyme activity.
Preparation of enzyme reaction buffer: 5× Kinase Buffer was diluted 5-fold with ultrapure water, and then the stock solutions of MgCl2, MnCl2 and DTT were added. The final composition of the buffer was as follows: 1× Kinase Buffer, 10 mM MgCl2, 1 mM MnCl2, and 1 mM DTT.
Preparation of 5 × BTK working solution: The BTK (5.17 µM) stock solution was removed from -20°C storage. Given that the BTK concentration in the enzyme reaction system was 2 nM and the concentration of the 5× working solution was 10 nM, the BTK stock solution was diluted 517-fold with the enzyme reaction buffer according to the volume required for the experiment. The diluted solution was then added to the 384-well plate at 2 µL per well. The plate was placed in a plate spinner and centrifuged at 2000 rpm for 1 minute to bring the liquid to the bottom of the wells.
[…]. Given that the SEB concentration in the enzyme reaction system was 50 nM and the concentration of the 5× working solution was 250 nM, the SEB stock solution was diluted 10-fold with the enzyme reaction buffer according to the volume required for the experiment. The diluted solution was then added to the 384-well plate at 2 µL per well. The plate was placed in a plate spinner and centrifuged at 2000 rpm for 1 minute to bring the liquid to the bottom of the wells.
The test compounds dissolved in 100% DMSO at 20 mM were diluted with 100% DMSO to a concentration of 200 µM, which represents the 200× concentration of the highest compound concentration point in the reaction system. The compounds at this concentration were then subjected to 10-point 3-fold serial dilution with 100% DMSO. The positive control wells and negative control wells were set with 100% DMSO. […]
Background: Time-resolved FRET reads energy transfer from a long-lived donor to a nearby acceptor.

Assay [3] concerns B cell activation in human whole blood. As to the kind of experiment: Inhibition of B cell activation in human whole blood (CD69 expression, flow cytometry). The conditions noted are these: anti-human IgD 30 µg/ml + IL-4 5 ng/ml, 18 hours, CD69-positive CD19-positive B cells, read-out: IC50 values of inhibitory activity against B cell activation in human whole blood. The class given is cell-based. The text has this: Test example 2: Inhibitory activity of compounds of the present disclosure against B cell activation in human whole blood • I. Experimental materials and instruments • 1. Human whole blood (internal recruitment) • 2. Goat F(ab')2 anti-human IgD-UNLB (SouthernBiotech, 2032-01) • 3. DPBS (1x) (Gibco, 14190-144) • 4. Recombinant human IL-4 (Peprotech, 200-04) • 5. Brilliant Violet 421™ anti-human CD19 antibody (Biolegend, 302234) • 6. APC anti-human CD69 antibody (Biolegend, 310910) • 7. APC mouse IgG1, κ isotype control antibody (Biolegend, 400120) • 8. eBioscience™ 10X RBC lysis buffer (multi-species) (Thermo, 004300-54) • 9. NEST 96-well deep-well plate (Wuxi NEST Biotechnology Co., Ltd., 503501) • 10. 96-well round-bottom plate (Corning, 3788) • 11. 96-well flat-bottom plate (Corning, 3599) • 12. Attune™ NxT acoustic focusing cytometer (ThermoFisher Scientific, 4.2.0) • 13. Cell incubator (Thermo, Forma steri-cycle i160) • II. Experimental procedure
B cells express the B cell receptor (BCR) complex on their surface. When B cells in human whole blood are induced to activate, they can trigger the downstream signalling pathways of the receptor and express the activation marker CD69. The expression of CD69 in activated B cells was detected by flow cytometry, and the IC50 of the compounds were calculated to evaluate the effects of the compounds on BCR activation.
The test compounds dissolved in 100% DMSO at 20 mM were diluted with 100% DMSO to a concentration of 1 mM, which represents the 200× concentration of the highest compound concentration point in the reaction system. The compounds at this concentration were then subjected to 8-point 4-fold serial dilution with 100% DMSO. The positive control wells were set with 100% DMSO, whereas the negative control wells were set with Remiburtinib at a final concentration of 5 µM. The serially diluted compounds and 100% DMSO were further diluted 10-fold in PBS to achieve the 20× concentration, followed by thorough mixing.
After thorough mixing, the whole blood sample was transferred to a loading reservoir and then dispensed into a 96-well flat-bottom plate at 80 µl per well. The compound dilution was dispensed at 5 µl per well. The 11th column of each row was designated as the negative control well, with 5 µl of 100 µM positive control drug added to each well. After thorough mixing for 5 min, the plate was incubated in a 37°C incubator for 30 min. Human IgD antibody was diluted 1.67-fold with PBS to a concentration of 300 µg/mL, and 10 µl of the diluted solution was added to each well of the culture plate (final concentration: 30 µg/ml). Human IL-4 (stock solution at 50 µg/ml) was diluted 500-fold with PBS to a concentration of 100 ng/mL, and 5 µl of the diluted solution was added to each well of the culture plate (final concentration: 5 ng/ml). After thorough mixing for 5 min, the plate was cultured in a 37°C incubator with 5% CO2 for 18 hours.
Flow cytometry detection: CD69-APC, CD19-BV421 and CD4-APC antibodies, and the isotype control antibodies for CD69-APC were removed from 4°C storage. Each antibody was added at 1 µl per well. After thorough mixing for 5 min, the plate was incubated for 30 min at 4°C (refrigerator) in the dark for staining. The 10X RBC lysis buffer was diluted in water to prepare 1X RBC lysis buffer. Aliquots of 1 ml of the lysis buffer were dispensed into each well of a 96-well deep-well plate in advance. The stained samples were transferred into the deep-well plate containing the lysis buffer for erythrocyte lysis. After completing the transfer of an entire plate, the plate was incubated in the dark for 15-20 min. Upon completion of lysis, the plate was centrifuged at 2000 rpm for 4 min. Each well was washed with 1 ml of PBS. Subsequently, the cells were resuspended in 200 µl of PBS, transferred to a 96-well plate, and washed twice more using the same procedure. The samples were resuspended in 200 µl of PBS per well and then subjected to flow cytometry detection. […]
(A flow cytometer gives signals particle by particle.)

The target of assay [4] is T1, hERG potassium channels. As to the kind of experiment: cell-based.

T1 sequence (Q12809 whole entry): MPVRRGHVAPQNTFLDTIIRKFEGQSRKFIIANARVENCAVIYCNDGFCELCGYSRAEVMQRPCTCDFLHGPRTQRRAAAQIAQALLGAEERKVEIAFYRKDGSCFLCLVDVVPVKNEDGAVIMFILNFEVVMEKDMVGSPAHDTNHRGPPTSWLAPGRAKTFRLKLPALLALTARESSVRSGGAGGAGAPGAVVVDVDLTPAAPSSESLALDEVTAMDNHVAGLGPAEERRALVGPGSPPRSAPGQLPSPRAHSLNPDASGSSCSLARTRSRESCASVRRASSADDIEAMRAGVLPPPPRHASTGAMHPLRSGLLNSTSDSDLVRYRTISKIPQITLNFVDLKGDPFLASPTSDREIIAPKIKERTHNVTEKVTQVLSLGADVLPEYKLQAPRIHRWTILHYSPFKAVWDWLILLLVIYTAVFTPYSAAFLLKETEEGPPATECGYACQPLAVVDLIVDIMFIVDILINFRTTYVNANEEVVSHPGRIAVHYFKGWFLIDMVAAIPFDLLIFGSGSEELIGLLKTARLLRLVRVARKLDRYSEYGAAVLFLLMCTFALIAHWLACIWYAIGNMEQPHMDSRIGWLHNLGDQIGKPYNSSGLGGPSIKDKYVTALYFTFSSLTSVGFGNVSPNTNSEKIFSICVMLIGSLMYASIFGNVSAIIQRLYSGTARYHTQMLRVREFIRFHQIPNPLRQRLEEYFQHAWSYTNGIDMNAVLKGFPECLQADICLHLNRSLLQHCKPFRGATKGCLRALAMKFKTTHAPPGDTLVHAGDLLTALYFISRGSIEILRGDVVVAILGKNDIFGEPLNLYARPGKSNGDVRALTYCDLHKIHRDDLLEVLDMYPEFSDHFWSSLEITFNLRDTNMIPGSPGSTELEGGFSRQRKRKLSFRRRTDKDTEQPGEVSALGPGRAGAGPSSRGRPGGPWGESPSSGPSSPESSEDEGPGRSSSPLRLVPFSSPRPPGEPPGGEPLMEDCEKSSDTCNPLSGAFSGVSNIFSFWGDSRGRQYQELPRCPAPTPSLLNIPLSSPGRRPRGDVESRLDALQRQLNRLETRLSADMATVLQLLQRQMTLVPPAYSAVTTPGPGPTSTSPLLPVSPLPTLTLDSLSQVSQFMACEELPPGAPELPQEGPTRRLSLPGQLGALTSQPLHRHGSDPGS
T2 sequence (Q06187 whole entry): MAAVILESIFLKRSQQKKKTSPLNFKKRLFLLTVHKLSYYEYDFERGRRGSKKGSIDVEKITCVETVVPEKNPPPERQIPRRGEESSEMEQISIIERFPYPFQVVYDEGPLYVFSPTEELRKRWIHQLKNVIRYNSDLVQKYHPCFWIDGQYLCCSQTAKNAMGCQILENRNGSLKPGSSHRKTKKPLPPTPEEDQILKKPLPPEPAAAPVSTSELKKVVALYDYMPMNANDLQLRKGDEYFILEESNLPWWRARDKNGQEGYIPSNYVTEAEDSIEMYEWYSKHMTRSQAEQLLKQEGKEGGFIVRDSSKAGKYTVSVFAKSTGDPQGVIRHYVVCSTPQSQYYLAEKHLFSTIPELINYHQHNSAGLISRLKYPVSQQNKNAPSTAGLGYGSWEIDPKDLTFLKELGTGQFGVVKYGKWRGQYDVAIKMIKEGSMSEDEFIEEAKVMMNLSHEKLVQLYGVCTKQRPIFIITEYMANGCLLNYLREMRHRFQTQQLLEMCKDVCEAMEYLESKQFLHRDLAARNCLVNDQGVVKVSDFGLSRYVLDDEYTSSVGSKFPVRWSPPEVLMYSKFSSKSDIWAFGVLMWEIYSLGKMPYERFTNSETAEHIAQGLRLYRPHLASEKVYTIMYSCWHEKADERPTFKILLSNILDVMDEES

Turning to `C=C(C)C(=O)NCCOc1c(N)ncnc1-c1cc(F)cc(NC(=O)c2ccc3c(c2F)OC(C)(C)C3)c1C` [Example 4, N-(3-(6-amino-5-(2-(N-methacrylamido)ethoxy)pyrimidin-4-yl)-5-fluoro-2-methylphenyl)-7-fluoro-2,2-dimethyl-2,3-dihydrobenzofuran-6-carboxamide], the IC50 on hERG potassium channels [1] was found to be 15500 nM.

Consider `C=CC(=O)N(C)CCOc1c(N)ncnc1-c1cc(F)cc(NC(=O)c2ccc3c(c2F)OCC3(C)C)c1C` [Example 7, N-(3-(6-amino-5-(2-(N-methacrylamido)ethoxy)pyrimidin-4-yl)-5-fluoro-2-methylphenyl)-7-fluoro-3,3-dimethyl-2,3-dihydrobenzofuran-6-carboxamide], for which the IC50 was 3 nM in assay [2], 10 to 100 nM in assay [3] and 17000 nM on hERG potassium channels [4].

Take `C=CC(=O)N(C)CCOc1c(N)ncnc1-c1cc(F)cc(NC(=O)c2cc3c(cc2F)C(C)(C)CO3)c1C` [Example 8, N-(3-(6-amino-5-(2-(N-methacrylamido)ethoxy)pyrimidin-4-yl)-5-fluoro-2-methylphenyl)-5-fluoro-3,3-dimethyl-2,3-dihydrobenzofuran-6-carboxamide]: the IC50 in assay [2] is 6.2 nM; in assay [3], 10 to 100 nM; on hERG potassium channels [4], 10000 nM.

For the compound `C=C(C)C(=O)NCCOc1c(N)ncnc1-c1cc(F)cc(NC(=O)c2sc3c(c2F)CC2(CC2)C3)c1C` [Example 26-1, N-(3-(6-amino-5-(2-(N-methacrylamido)ethoxy)pyrimidin-4-yl)-5-fluoro-2-methylphenyl)-3-fluoro-4,6-dihydrospiro[cyclopenta[b]thiophene-5,1'-cyclopropane]-2-carboxamide], the 50% inhibitory concentration (IC50) at hERG potassium channels [1] was 14000 nM.

`C=CC(=O)N(C)CCOc1c(N)ncnc1-c1cc(F)cc(NC(=O)c2ccc3c(c2)OCC3(C)C)c1C` [Example 27, N-(3-(6-amino-5-(2-(N-methacrylamido)ethoxy)pyrimidin-4-yl)-5-fluoro-2-methylphenyl)-3,3-dimethyl-2,3-dihydrobenzofuran-6-carboxamide]: the concentration for half-maximal inhibition (IC50) was 7.52 nM in assay [2], 10 to 100 nM in assay [3] and 12000 nM on hERG potassium channels [4].

In the case of `[2H]C([2H])(CN(C)C(=O)C=C)Oc1c(N)ncnc1-c1cc(F)cc(NC(=O)c2ccc3c(c2F)OCC3(C)C)c1C` [Example 28, N-(3-(6-amino-5-(2-(N-methacrylamido)ethoxy-1,1-d2)pyrimidin-4-yl)-5-fluoro-2-methylphenyl)-7-fluoro-3,3-dimethyl-2,3-dihydrobenzofuran-6-carboxamide], the values for the IC50 (in assay [2]; in assay [3]; against hERG potassium channels [4]) were 2.12 nM, 10 to 100 nM and 14000 nM, respectively.

Turning to `C=CC(=O)N(CC)CCOc1c(N)ncnc1-c1cc(F)cc(NC(=O)c2ccc3c(c2F)OCC3(C)C)c1C` [Example 29, N-(3-(6-amino-5-(2-(N-ethylacrylamido)ethoxy)pyrimidin-4-yl)-5-fluoro-2-methylphenyl)-7-fluoro-3,3-dimethyl-2,3-dihydrobenzofuran-6-carboxamide], the IC50 in assay [2] is 1.73 nM; in assay [3], 10 to 100 nM; on hERG potassium channels [4], 16000 nM.

Turning to `C=CC(=O)N(CCF)CCOc1c(N)ncnc1-c1cc(F)cc(NC(=O)c2ccc3c(c2F)OCC3(C)C)c1C` [Example 30, N-(3-(6-amino-5-(2-(N-(2-fluoroethyl)acrylamido)ethoxy)pyrimidin-4-yl)-5-fluoro-2-methylphenyl)-7-fluoro-3,3-dimethyl-2,3-dihydrobenzofuran-6-carboxamide], the IC50 in assay [2] was 1.55 nM; in assay [3], 10 to 100 nM; on hERG potassium channels [4] it was 20000 nM.

Regarding `C=CC(=O)N1C[C@H](F)C[C@H]1COc1c(N)ncnc1-c1cc(F)cc(NC(=O)c2ccc3c(c2F)OCC3(C)C)c1C` [Example 32, N-(3-(5-(((2S,4R)-1-acryloyl-4-fluoropyrrolidin-2-yl)methoxy)-6-aminopyrimidin-4-yl)-5-fluoro-2-methylphenyl)-7-fluoro-3,3-dimethyl-2,3-dihydrobenzofuran-6-carboxamide], the IC50 in assay [2] was 1.56 nM; in assay [3], 10 to 100 nM; at hERG potassium channels [4], 12000 nM.

One may read the IC50 as the concentration that gives 50% inhibition.

The record behind these values is EP4782437A1, “HETEROARYL COMPOUND, AND PREPARATION METHOD THEREFOR AND USE THEREOF IN MEDICINE” (Jiangsu Hengrui Pharmaceuticals Co., Ltd., priority 2023, dated 2025).
